Ends that are not written are not given here.
Experiments:
E. faecalis = assay: CellROX ROS production, imaging; type: cell-based, Enterococcus faecalis; details: 500 nM, 2.5 μM CellROX
Description: The growth rate of the sodA mutant in the absence of peptide was lower than that of the wild type (WT), underscoring the importance of effectively controlling O2^− accumulation.

V. cholerae = assay: CellROX ROS production, single-cell imaging; type: cell-based, Vibrio cholerae; details: 100 nM, 2.5 μM CellROX
Description: The assortment of E. coli genes that were differentially expressed after peptide treatment led us to suspect that B22a induced oxidative stress. Oxidative stress is often transient and challenging to detect due to a suite of enzymes in bacterial cells that can rapidly reduce oxidative species. We monitored the real-time accumulation of ROS in single cells of V. cholerae in the presence of CellROX, a cell-permeable redox dye that reacts with O2^– and ^·OH ([30]). CellROX is nonfluorescent in the reduced state, but upon oxidation, it binds double-stranded DNA and fluoresces strongly. Images were captured at 15-s intervals over 40 min, twice the doubling time of V. cholerae under these conditions. […] The number of fluorescent cells increased following treatment with 25, 50, or 100 nM B22 or B22a (Fig. S4), and a fluorescence burst due to the oxidation of CellROX was observed within 15 s of B22 treatment (Fig. 7A, bottom). The signal intensity peaked over the next 30 s and then dissipated after about 1 min. The loss in fluorescence intensity was followed by an abrupt shortening in cell length, a dramatic decrease in cell contrast, and bleb formation roughly 45 s later.

P. aeruginosa biofilms = assay: Established biofilm in flow cell, LIVE/DEAD staining; details: 100 nM
[1] = system: Pseudomonas aeruginosa PAO1 oprD; type: cell-based; details: CAMHB, 16 to 18 h, at least three independent assays
E. coli = assay: Single-cell division time, time-lapse phase-contrast microscopy; type: cell-based, Escherichia coli; details: 30 nM, first three generations
Method: (§1) To confirm that sublethal levels of cathelicidins affected the growth of Gram-negative bacteria, the division of single cells of E. coli and E. cloacae was monitored. Cells were seeded into microfluidic chambers and grown under continuous flow, and time-lapse phase-contrast microscopy was used to record the cell division time in the presence or absence of B22a.
(§2) Imaging of individual cells was conducted using the CellAsic microfluidic perfusion system (ONIX) with integrated temperature controller and B04A bacterial microfluidic plates (EMD Millipore, Billerica, MA). The CellAsic ONIX FG software (v 5.0.2.0) was used to control flow rate and deliver fresh medium with or without antimicrobial peptide (AMP). The chambers were loaded by perfusion of 50 μl of a 10^6 cells/ml bacterial suspension at 2 lb/in^2 for 15 s to prime the cells followed by 4 lb/in^2 for 15 s to trap the cells. The chamber was then rinsed at 1 lb/in^2 for 30 s followed by 5 lb/in^2 for 5 min. To quickly switch solutions, medium was perfused at 10 lb/in^2 for 10 s, and then flow was reduced to 2 lb/in^2 for the remainder of the imaging.

E. cloacae = assay: as above; type: cell-based, Enterobacter cloacae; details: 30 nM, first three generations
Method: as §1, §2

**Q.** How did the CellROX oxidative signal (E. faecalis) turn out when FRKKLKKLFKKLSPVIPLLKLG [B22] was run?
**A.** Its CellROX oxidative signal is “fluorescent burst”.

**Q.** What about the “Time to fluorescence burst due to oxidation of CellROX” value (V. cholerae) of the same substance?
**A.** The value was ≤ 15 s.

**Q.** What about the “Drop in biofilm biomass” value (P. aeruginosa biofilms; 4-h period, continuous flow) of the same substance?
**A.** Its value is 50%.

**Q.** What about the “Cell death in biofilm (spike)” value (P. aeruginosa biofilms; after 1 h) of the same substance?
**A.** The value was > 50.

**Q.** Which results are given for FRKKLKKLFKKLSPVIPLLKLG-NH2 [B22a]?
**A.** MIC [1]: 2 µM; Cell division time (E. coli): increased twofold; Cell division time (E. cloacae): increased twofold
